Source: patent US9738605B2, “Hybrid compounds of curcumin and melatonin as neuroprotectants for neurodegenerative disorders” (VIRGINIA COMMONWEALTH UNIVERSITY, priority 2013, dated 2017)
Read-outs that look alike come from different tables or passages of the source.

Columns and labels:
MC65 cells [1] = experiment: Neuroprotection assay in MC65 cells (−TC, MTT); details: for EC50: read-out: EC50 for neuroprotection of MC65 cells
Description: MC65 cells were washed twice with PBS, resuspended in Opti-MEM, and seeded in 96-well plates (4×10^4 cells/well). Indicated compounds were then added, and cells were incubated at 37° C. under +TC or −TC conditions for 72 h. Then, 10 μL of MTT (5 mg/mL in PBS) were added and the cells were incubated for another 4 h. Cell medium was then removed, and the remaining formazan crystals produced by the cellular reduction of MTT were dissolved in DMSO. Absorbance at 570 nm was immediately recorded using a FlexStation® 3 plate reader (Molecular Devices, CA).

Aβ42 = molecular target: T1, Aβ42 (Homo sapiens, UniProt P05067); experiment: Thioflavin T assay of Aβ42 fibril formation; type: biochemical; details: 10 μM compound, Aβ42 25 μm, 48 h, ThT; read-out: inhibition of the formation of Aβ42 fibrils
T1 construct: purchased American Peptide, Inc. (Sunnyvale, Calif.)
T1 sequence (P05067 672-713 limits assumed): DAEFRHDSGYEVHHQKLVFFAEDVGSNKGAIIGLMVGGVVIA
Description: Briefly, 1 μL of each compound solution in DMSO (0.01 μM to 100 μM) was added to corresponding wells in a 96-well plate. Each concentration was prepared in independent triplicates and a solvent control was included. To each well, 9 μL of 25 μM Aβ42 in PBS (pH 7.4) was added, and then plates were incubated in dark at room temperature for 48 h. Next, 200 μL of a 5 μM ThT in 50 mM glycine solution (pH 8.0) was added to each well.

[2] = background statement; cited from earlier work
[3] = PAMPA-BBB passive diffusion model; details: for Papp: PAMPA
Description: In the same assay, 10 commercial drugs with known CNS penetration were also tested as positive controls, and their experimental values were compared to reported values (Table 1).

[4] = system: amyloid-β oligomers (AβOs) in MC65 cells; experiment: Western blot (6E10) of AβOs production in MC65 cells; type: cell-based; details: MC65 cells after removal of TC, 6E10 antibody
Description: MC65 cells (4×10^5 cells/mL) were treated with indicated compounds for 30 h and then were lysed by sonication in a Tricine buffer solution and boiled for 5 min. Protein samples were collected from the supernatant after centrifugation of the samples at 12,800×g for 5 min, and then quantified using the Bradford method. Equal amounts of protein (20.0 μg) were separated by SDS-PAGE on a gel (Bio-Rad) and transferred onto a PVDF membrane (Bio-Rad). The blots were blocked with 5% milk in TBS-Tween 20 (0.1%) solution at room temperature for 1 h and then probed with the 6E10 antibody overnight at 4° C. The blots were washed twice in TB S-Tween 20 for 15 min, and then incubated with a 1:1000 dilution of horseradish peroxidase-conjugated secondary antibody in a 5% milk/PBS-Tween 20 solution at room temperature for 1 h. After washing twice in TBS-Tween 20 for 15 min, the proteins were visualized by a Western Blot Chemiluminescence Reagent (Thermo Fischer Scientific, Waltham, Mass.). The blots were also probed with antibodies against α-tubulin to ensure equal loading of proteins.

[5] = system: intracellular oxidative stress in MC65 cells; experiment: ROS production assay in MC65 cells (DCFH-DA); type: cell-based; details: −TC, 48 h, DCFH-DA 25 μM, read-out: IC50 for suppression of intracellular oxidative stress
Description: Cells were harvested, washed twice with cold PBS, then suspended in PBS and incubated with DCFH-DA (25 μM) in dark for 1 h. Fluorescence was analyzed by flow cytometry using a Millipore Guava® easyCyte flow cytometer.

HT22 cells = experiment: Hydrogen peroxide toxicity assay in HT22 cells; type: cell-based, mouse; details: 24 h
Description: HT22 cells were seeded in 96-well plates (4×10^3 cells/well) in growth medium and incubated for 24 h at 37° C. The medium was removed and compounds were added at the indicated concentrations in fresh growth medium, and the cells were incubated for another 1 h. H2O2 was then added at a final concentration of 500 μM, and the plates were then incubated for 24 h. Cell viability was assessed by MTT assay as previously described. Values were expressed as a percentage relative to the negative (H2O2-free) control.

MC65 cells [6] = experiment: Cytotoxicity in MC65 cells under normal growth conditions (+TC), MTT; type: cell-based; details: 72 h
Description: FIG. 7A-D. Effects on viability of TRO19622, Mito-TEMPO and 7 in MC65 cells. A. MC65 cells were treated with Mito-TEMPO or TRO-19622 at indicated concentrations under normal growth conditions (+TC) for 72 h. Cell viability was assessed by MTT assay. Data were expressed as mean percentage viability (n=3) with parallel +TC cultures set at 100% viability. Error bars represent SEM. B. MC65 cells were treated with Mito-TEMPO at indicated concentrations under −TC conditions for 72 h. Cell viability was assessed by MTT assay. Data were expressed as mean percentage viability (n=3) with parallel +TC cultures set at 100% viability. C. MC65 cells were treated with TRO-19622 at indicated concentrations under −TC conditions for 72 h. Cell viability was assessed by MTT assay. Data were expressed as mean percentage viability (n=3) with parallel +TC cultures set at 100% viability. D. MC65 cells were treated with 7 or Mito-TEMPO at indicated concentrations for 2 h before addition of rotenone for 48 h. Cell viability was assessed by MTT assay. Data were expressed as mean percentage viability (n=3) with parallel +TC cultures set at 100% viability. […]

MC65 cells [7] = experiment: Rotenone protection assay in MC65 cells; type: cell-based; details: 10 μM, 48 h
Description: The medium was removed and compounds were added at the indicated concentrations in fresh growth medium, and the cells were incubated for another 2 h. Rotenone was then added at a final concentration of 10 μM, and the plates were then incubated for 48 h. Cell viability was assessed by MTT assay.

**Q.** For `COc1ccc2[nH]cc(CCNC(=O)CC(=O)C=Cc3ccco3)c2c1` [AM4], which “neuroprotection of MC65 cells from −TC induced cell death” value (from here on “neuroprotection of MC65 cells”) (MC65 cells [1]; 0.3 μM, −TC, 72 h, MTT) is on record?
**A.** Its value is “did not show neuroprotection”.

**Q.** For `COc1ccc2[nH]cc(CCNC(=O)CC(=O)C=Cc3ccoc3)c2c1` [AM5], which “protection compared to −TC control” value (MC65 cells [1]; 0.3 μM, −TC, 72 h) is on record?
**A.** The value was ~48%.

**Q.** For `COc1ccc2[nH]cc(CCNC(=O)CC(=O)C=Cc3ccncc3)c2c1` [AM6], which “protection compared to −TC control” value (MC65 cells [1]; 0.3 μM, −TC, 72 h) is on record?
**A.** The value was ~33%.

**Q.** Which “protection compared to −TC control” value (MC65 cells [1]; 0.3 μM, −TC, 72 h) does the source give for `COc1ccc2[nH]cc(CCNC(=O)CC(=O)C=Cc3ccc(N(C)C)cc3)c2c1` [AM14] here?
**A.** The value was ~0.20%.

**Q.** What does the source list for `COc1cc(/C=C/C(=O)CC(=O)/C=C/c2ccc(O)c(OC)c2)ccc1O` [Compound 1, Curcumin]?
**A.** inhibition at 10 µM (Aβ42): 27.3%; neuroprotection of MC65 cells from −TC induced cell death (MC65 cells [1]; 0.3 μM, −TC, 72 h, MTT): no neuroprotection; neuroprotection at much higher concentrations (data not shown) (MC65 cells [1]; 3 and 10 μM, −TC): moderate neuroprotection

**Q.** Which half-life [2] does the source give for `COc1ccc2[nH]cc(CCNC(C)=O)c2c1` [Compound 2, Melatonin] here?
**A.** The half-life was < 30 min.

**Q.** What about the “neuroprotection of MC65 cells” value (MC65 cells [1]; 0.3 μM, −TC, 72 h, MTT) of the same compound?
**A.** The value was “no neuroprotection”.

**Q.** With `COc1ccc2[nH]cc(CCNC(=O)CC(=O)/C=C/c3ccc(O)c(OC)c3)c2c1` [Compound 3] as the compound, how does the “Permeability Pe (exp.)” value ([3]; PBS:EtOH (70:30), mean ± SD of 3 independent experiments) read?
**A.** The value was 6.5 ± 0.6 10^−6 cm s^−1.

**Q.** What about the “Prediction of penetration in the CNS” value ([3]; from Pe (exp.) and correlation with reported values) of the same compound?
**A.** Its value is “CNS− (compounds with Pe<8.1×10^−6 cm s^−1 will have low BBB permeability by passive diffusion)”.

**Q.** And the “increase in cell viability” value (MC65 cells [1]; 0.3 μM, −TC, 72 h)?
**A.** The value was ~61%.

**Q.** What about the EC50 (MC65 cells [1]; −TC conditions, 72 h, MTT) of the same compound?
**A.** The EC50 was 134 ± 4.5 nM.

**Q.** With `COc1cccc(C=CC(=O)CC(=O)NCCc2c[nH]c3ccc(OC)cc23)c1` [Compound 4] as the compound, how does the “neuroprotection of MC65 cells” value (MC65 cells [1]; 0.3 μM, −TC, 72 h, MTT) read?
**A.** The value was “complete loss of neuroprotection”.

**Q.** Which results are given for `COc1ccc2[nH]cc(CCNC(=O)CC(=O)/C=C/c3ccc(O)cc3)c2c1` [Compound 5]?
**A.** Papp [3]: 5.9 ± 0.4 ×10⁻⁶ cm/s; effect on the production of AβOs (tetramers, pentamers, heptamers) [4]: dose-dependently suppressed; neuroprotection of MC65 cells from −TC induced cell death (MC65 cells [1]; 0.3 μM, −TC, 72 h, MTT): significant neuroprotection; EC50 (MC65 cells [1]; MC65, 72 h): 23.1 ± 5.23 nM; IC50 [5]: ~63 nM

**Q.** For `OO` [Compound H2O2, H2O2], which HT22 cell death (HT22 cells; 500 μM) is on record?
**A.** Its HT22 cell death is ~58%.

**Q.** Which “toxic effects in MC65 cells under +TC” value (MC65 cells [6]; up to 10 μM) does the source give for `CC1(C)CC(NC(=O)C[P+](c2ccccc2)(c2ccccc2)c2ccccc2)CC(C)(C)N1[O]` [Mito-TEMPO, reference compound] here?
**A.** Its value is “did not show toxic effects”.

**Q.** And the “protection from −TC induced cytotoxicity” value (MC65 cells [1]; indicated concentrations, maximum 10 μM, −TC, 72 h)?
**A.** The value was “dose-dependently protected”.

**Q.** For `CN1C(C(=O)Nc2ccccn2)=C(O)c2ccccc2S1(=O)=O` [Piroxicam, reference compound], which Papp [3] is on record?
**A.** The Papp was 6 ± 0.3 ×10⁻⁶ cm/s.

**Q.** With `CN(C)CCCN1c2ccccc2Sc2ccccc21` [Promazine, reference compound] as the compound, how does the Papp [3] read?
**A.** Its Papp is 25.1 ± 1.4 ×10⁻⁶ cm/s.

**Q.** Which results are given for `CC(C)CCC[C@@H](C)[C@H]1CC[C@H]2[C@@H]3CCC4=CC(=NO)CC[C@]4(C)[C@H]3CC[C@]12C` [TRO-19622, reference compound]?
**A.** cytotoxicity in MC65 cells under +TC (MC65 cells [6]; up to 25 μM): did not show cytotoxicity; protection from −TC induced cytotoxicity (MC65 cells [1]; up to 25 μM, −TC, 72 h): did not show significant protection

**Q.** Which “protection from H2O2-induced cytotoxicity” value (HT22 cells; 300 μM, H2O2 500 μM) does the source give for `Cc1c(C)c2c(c(C)c1O)CCC(C)(C(=O)O)O2` (centres unmarked) [Trolox, 6-hydroxy-2,5,7,8-tetramethyl chroman-2-carboxylic acid] here?
**A.** Its value is “full rescue”.

**Q.** With `COc1ccc2[nH]cc(CCNC(=O)CC(=O)C=Cc3ccc4c(c3)OCO4)c2c1` [ZSJ-II-126] as the compound, how does the “neuroprotection of MC65 cells” value (MC65 cells [1]; 0.3 μM, −TC, 72 h, MTT) read?
**A.** The value was “diminished protection”.

**Q.** Which “cell death of MC65 cells” value (MC65 cells [7]) does the source give for `C=C(C)[C@H]1Cc2c(ccc3c2O[C@@H]2COc4cc(OC)c(OC)cc4[C@@H]2C3=O)O1` [rotenone, reference compound] here?
**A.** Its value is 75.6%.
